From US9365534B2, “Arylated camphenes, processes for their preparation and uses thereof” (Yissum Research Development Company of the Hebrew …, priority 2009, dated 2016)
Several values for one entry are separate records, joined by “and”; a condition that tells them apart may be missing. Equal entries are not always repeated.

Experiments:
human CB2 receptor [1] = molecular target: T1, human CB2 receptor (Homo sapiens (Human), UniProt P34972); experiment: cell-based; settings: for Emax: CHO, read-out: cAMP Assay CB2 Receptor Emax; for IC50: read-out: cAMP Assay CB2 Receptor IC50
Text: (§1) The cDNA clones for human HA-tagged CB1 and CB2 receptors were obtained from the Missouri S&T cDNA Resource Center (www.cdna.org) in cloning vector pcDNA3.1+. The vector containing the human CB2 receptor was transfected directly into CHO-KI cells obtained from ATCC. The HA-tagged human CB1 receptor sequence was subcloned into the pef4-V5-HisA vector with Kpn1 and Pme1 restriction enzymes and subsequently transfected into CHO-K1 cells. Cells were clonally isolated by limited dilution and screened by immunocytochemistry for expression of the HA tag.
(§2) Cells were maintained in DMEM/F12 media supplemented with 10% fetal bovine serum (FBS), 100 units/ml penicillin and 100 μg/ml streptomycin and 2 mM L-glutamine. Transfected cell lines were maintained with additional 150 ug/ml zeocin for pEF HA-CB1 transfected cells and 500 ug/ml G-418 for pcDNA HA-CB2 transfected cells (all reagents obtained from Invitrogen).
(§3) Cells were seeded at a density of 10,000 cells per well in poly-L-lysine treated 96-well culture plates (BD Biosciences). The following day wells were incubated with 40 μl DMEM/F12 containing 0.5% (w/v) BSA and 0.5 mM 3-isobutyl-1-methylxanthine (Sigma-Aldrich) for 30 minutes prior to 15 min stimulation with 50 μM forskolin (Tocris Cookson) and varying concentrations of indicated compounds at 37° C., 5% CO2. Assays were stopped by removal of media and addition of 100% ice cold ethanol. Plates were then frozen for a minimum of two hours before complete evaporation of ethanol. The well contents were then reconstituted in 50 μl cAMP assay buffer (20 mM HEPES pH 7.5 and 5 mM EDTA). Half of the reconstituted sample was transferred to round bottom 96-well plates (Greiner Bio-One GmbH) with 50 μl 0.01% w/v PKA (cAMP dependent protein kinase (Sigma-Aldrich) in 1 mM Na citrate pH 6.5 with 2 mM dithiothreitol) and 25 μl [^3H]-cAMP (at 22 nM in cAMP assay buffer) (GE Healthcare, Life Sciences). This was allowed to equilibrate for 3-18 hours. Following this a charcoal slurry (5% (w/v) activated charcoal and 0.2% (w/v) BSA in cAMP assay buffer) was added to the samples and the plates centrifuged at 3000×g, 4° C. for 5 min. Radioactive counts within the supernatant were then determined as described for competition binding assays.
(§4) pIC50 values were determined from cAMP assays by fitting a sigmoidal concentration response curve using Prism 4.02.

human CB1 receptor = human CB1 receptor (Homo sapiens (Human), UniProt P21554); experiment: cell-based; settings: whole cells expressing CB1, 50 μM forskolin; read-out: cAMP Assay CB1 Receptor IC50
Text: as §1, §2, §3, §4

human CB2 receptor [2] = molecular target: T1, human CB2 receptor; experiment: Membrane [35S]GTPγS binding assay; type: biochemical
Method: Human CB2 expressing CHO-K1 membranes (5 μg per incubation mixture) were diluted in 50 mM Tris-HCl (pH 7.5) and 0.5 mM EDTA and added to HU compounds in a pre-mixed incubation cocktail. Final incubation concentrations were 55 mM Tris-HCl (pH 7.4), 1 mM EDTA, 100 mM NaCl, 5 mM MgCl2, 0.5% BSA, 50 μM GDP, 0.2 nM [^35S]GTPγS (PerkinElmer) with varied HU compound concentration and 5 μg membrane. Incubations were continued for 60 minutes at 30° C. in a shaking water bath. Assays were terminated by addition of 2 ml ice cold wash buffer (50 mM Tris-HCl, pH 7.5 and 5 mM MgCl2) and filtration through pre-soaked GF/C filters (Whatman), followed by two further washes. adioactivity was determined as described for competition binding assays.
Data was analyzed using the Prism 4.02 programme (GraphPad Software, San Deigo, Calif., USA). IC50 and EC50 values, as determined from sigmoidal curves, were generated from drug concentrations plotted in log scale. […] It is possible to display data as an average, plus or minus the standard error of the mean in log form, however, this is not easily interpreted or compared to other values. It was therefore elected to calculate the 95% confidence interval for the mean value in log form and then convert the lower limit, mean and upper limit into the molar (linear) scale. […] Two-tailed t-tests for statistical analysis between enantiomeric pairs of compounds were performed for CB2 Ki values. The Pearson value, an indication of linearity, was determined for Ki and IC50 or EC50 results obtained for CB2 receptors in binding, cAMP or GTPγS experiments, respectively.

closed head injury (CHI) = experiment: Closed head injury (CHI) model, neurological severity score, C57Bl mice; type: in vivo
Method: The study was conducted according to the guidelines of the Institutional Animal Care Committee of the Hebrew University. Male Sabra mice weighing 35 to 50 g were used in all experiments. Animals were kept under controlled light conditions with a 12 h/12 h light/dark cycle. Experimental closed head injury (CHI) was induced using a modified weight drop device developed in our laboratory as described previously (Chen et al., 1996). At 1 h after CHI, the functional status of the mice was evaluated according to a set of 10 neurobehavioral tasks, namely the neurological severity score (NSS). This score is based on the ability of the mice to perform 10 different tasks (Beni-Adani et al., 2001) that evaluate their motor ability, balance, and alertness. One point is given for failing to perform a task. The severity of injury is indicated by the initial NSS, which is evaluated 1 h after CHI and is also a reliable predictor of the later outcome. A score of 10 reflects maximal neurologic impairment, and a decrease of NSS during the recovery period indicates partial recovery of function.
Data was analyzed using the Prism 4.02 programme (GraphPad Software, San Deigo, Calif., USA). The data are expressed as mean±SEM and statistical significance was assessed with one way analysis of variance (ANOVA) followed by a Dunnett's post-hoc analysis for TNF-α levels. […]

Sequence of human CB1 receptor (P21554 whole entry): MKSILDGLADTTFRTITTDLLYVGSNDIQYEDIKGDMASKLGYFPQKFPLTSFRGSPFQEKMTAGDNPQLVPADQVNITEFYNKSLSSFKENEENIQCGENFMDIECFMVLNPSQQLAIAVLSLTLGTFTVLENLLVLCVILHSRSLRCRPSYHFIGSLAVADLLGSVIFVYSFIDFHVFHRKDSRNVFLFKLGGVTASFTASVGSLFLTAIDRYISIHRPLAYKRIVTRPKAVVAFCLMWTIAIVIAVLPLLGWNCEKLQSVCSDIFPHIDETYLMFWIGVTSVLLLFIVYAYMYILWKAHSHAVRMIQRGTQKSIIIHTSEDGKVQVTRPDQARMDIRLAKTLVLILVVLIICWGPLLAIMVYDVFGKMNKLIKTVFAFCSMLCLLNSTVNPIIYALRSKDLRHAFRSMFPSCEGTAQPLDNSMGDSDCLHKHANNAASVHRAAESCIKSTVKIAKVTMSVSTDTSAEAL

CCCCCCC(C)(C)c1cc(OC)c(C2=C[C@H]3CC[C@]2(CO)C3(C)C)c(OC)c1 [HU-910, (1S,4R)-(2-(2,6-dimethoxy-4-(2-methyloctan-2-yl)phenyl)-7,7-dimethylbicyclo[2.2.1]hept-2-en-1-yl)methanol]
Emax (human CB2 receptor [1]): 105 ± 12%
IC50 (human CB2 receptor [1]): 0.162 µM
IC50 (human CB1 receptor): > 50 µM
EC50 (human CB2 receptor [2]): 0.0264 µM
Emax (human CB2 receptor [2]; read-out: [35S]GTPγS Emax): 121 ± 7%

CCCCCCC(C)(C)c1cc(OC)c(C2=C[C@H]3CC[C@]2(C(=O)O)C3(C)C)c(OC)c1 [HU-914, (1S,4R)-2-(2,6-dimethoxy-4-(2-methyloctan-2-yl)phenyl)-7,7-dimethylbicyclo[2.2.1]hept-2-ene-1-carboxylic acid]
recovery, Neurological Severity Score (NSS) (closed head injury (CHI); HU-914 2.5 and 5 mg/kg i.p., day 14 post injury, vs vehicle or 10 mg/kg): significant greater recovery
most effective doses (NSS recovery) (closed head injury (CHI); i.p. 1 h after CHI, followed 14 days): 2.5 mg/kg and 5 mg/kg
Emax (human CB2 receptor [1]): 82 ± 7%
IC50 (human CB2 receptor [1]): 2.29 µM
IC50 (human CB1 receptor): > 50 µM
